Laboratory results reported in patent publication US5602101A, “Antithrombotic agents” (priority 1994, dated 1997).
Like-named read-outs stand apart in the source and are kept apart here. Non-standard residues stand in square brackets, D forms with d. Residues, ends and D or L forms follow the SMILES beside them. dNMeCha = CN[C@H](CC1CCCCC1)C(=O)O; dCha = N[C@H](CC1CCCCC1)C(=O)O

Assays:
human thrombin = biological target: T1, human thrombin (Homo sapiens, UniProt P00734); experiment: Inhibition of amidase activity of thrombin (chromogenic substrate), Kass; format: biochemical; conditions: substrate N-benzoyl-Phe-Val-Arg-p-nitroanilide, pH 7.4
T1 construct: purified human thrombin Enzyme Research Laboratories, South Bend, Ind; purchased Enzyme Research Laboratories, South Bend, Ind
Outline: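 Human thrombin (8 NIH units/ml solution) with compound in 0.03M Tris, 0.15M NaCl, pH 7.4; chromogenic substrate hydrolysis followed at 405 nm. Free thrombin from standard curves gives bound enzyme and free inhibitor; Kass, an association equilibrium constant in L/mol, averaged over a compound concentration range.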

factor Xa = biological target: T2, factor Xa (Homo sapiens, UniProt P00742); experiment: Serine protease inhibition, factor Xa (chromogenic substrate), Kass; format: biochemical; conditions: substrate N-Benzoyl-Ile-Glu-Gly-Arg-p-nitroanilide
T2 construct: Human factors X, Xa, IXa, XIa, and xIIa are purchased from Enzyme Research Laboratories; purchased Enzyme Research Laboratories, South Bend, Ind
Outline: (§1)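 Enzyme mixed with test compound in 0.03M Tris, 0.15M NaCl, pH 7.4, then p-nitroanilide substrate added (Bz-Ile-Glu-Gly-Arg-pNA for factor Xa; Bz-Phe-Val-Arg-pNA for trypsin; H-D-Ile-Pro-Arg-pNA for t-PA; H-D-Val-Leu-Lys-pNA for plasmin); hydrolysis followed at 405 nm. Free enzyme from standard curves gave bound enzyme and free inhibitor; Kass (L/mol) averaged over several compound concentrations.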

Bovine trypsin = biological target: T3, Bovine trypsin (Bos taurus, UniProt P00760); experiment: Serine protease inhibition, trypsin (chromogenic substrate), Kass; format: biochemical; conditions: substrate N-Benzoyl-Phe-Val-Arg-p-nitroanilide
T3 construct: Bovine trypsin is purchased from Worthington Biochemicals, Freehold, N.J; purchased Worthington Biochemicals, Freehold, N.J
T3 sequence (P00760 24-246): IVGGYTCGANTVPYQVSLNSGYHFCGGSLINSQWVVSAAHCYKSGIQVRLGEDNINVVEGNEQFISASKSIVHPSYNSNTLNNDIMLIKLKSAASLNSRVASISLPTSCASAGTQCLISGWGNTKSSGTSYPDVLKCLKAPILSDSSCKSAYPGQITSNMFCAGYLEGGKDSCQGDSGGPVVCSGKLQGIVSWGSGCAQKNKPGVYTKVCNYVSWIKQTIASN
Outline: as §1

Human plasmin = biological target: T4, Human plasmin (Homo sapiens, UniProt P00747); experiment: Serine protease inhibition, plasmin (chromogenic substrate), Kass; format: biochemical; conditions: substrate H-D-Val-Leu-Lys-p-nitroanilide
T4 construct: Human plasmin is purchased from Boehringer Mannheim, Indianapolis, Ind; purchased Boehringer Mannheim, Indianapolis, Ind
Outline: as §1

[1] = biological target: T5, tissue plasminogen activator (t-PA) (Homo sapiens, UniProt P00750); experiment: Serine protease inhibition, t-PA (chromogenic substrate), Kass; format: biochemical; conditions: substrate H-D-Ile-Pro-Arg-p-nitroanilide
T5 construct: purchased American Diagnostics, Greenwich, Conn
Outline: as §1

Human Plasma [2] = experiment: Anticoagulation in human plasma, thrombin time (TT); format: biochemical; conditions: concentration required to double the thrombin time
Outline: (§2)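 Compounds were added to human plasma over a range of concentrations. PT used Thromboplastin-C reagent with saline; APTT used a 120-second Actin preincubation followed by 0.02M CaCl2, and TT used bovine thrombin. Clotting times were read on a CoAScreener, and the concentration doubling clotting time was estimated by linear extrapolation.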

Human Plasma [3] = experiment: Anticoagulation in human plasma, activated partial thromboplastin time (APTT); format: biochemical; conditions: concentration required to double the APTT
Outline: as §2

Human Plasma [4] = experiment: Anticoagulation in human plasma, prothrombin time (PT); format: biochemical; conditions: concentration required to double the PT
Outline: as §2

[5] = rat, in vivo
[6] = Index of bioavailability (plasma TT AUC, p.o. vs i.v.); conditions: rats, adjusted for dose

T4 sequence (P00747 581-810 limits assumed): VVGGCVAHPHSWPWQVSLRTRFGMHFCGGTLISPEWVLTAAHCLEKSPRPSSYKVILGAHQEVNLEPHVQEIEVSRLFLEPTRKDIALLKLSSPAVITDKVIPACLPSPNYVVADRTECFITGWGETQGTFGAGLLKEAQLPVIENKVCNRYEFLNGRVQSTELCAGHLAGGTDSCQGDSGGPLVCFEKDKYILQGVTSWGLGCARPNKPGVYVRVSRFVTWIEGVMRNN
T4 sequence (P00747 97-580 partner limits assumed): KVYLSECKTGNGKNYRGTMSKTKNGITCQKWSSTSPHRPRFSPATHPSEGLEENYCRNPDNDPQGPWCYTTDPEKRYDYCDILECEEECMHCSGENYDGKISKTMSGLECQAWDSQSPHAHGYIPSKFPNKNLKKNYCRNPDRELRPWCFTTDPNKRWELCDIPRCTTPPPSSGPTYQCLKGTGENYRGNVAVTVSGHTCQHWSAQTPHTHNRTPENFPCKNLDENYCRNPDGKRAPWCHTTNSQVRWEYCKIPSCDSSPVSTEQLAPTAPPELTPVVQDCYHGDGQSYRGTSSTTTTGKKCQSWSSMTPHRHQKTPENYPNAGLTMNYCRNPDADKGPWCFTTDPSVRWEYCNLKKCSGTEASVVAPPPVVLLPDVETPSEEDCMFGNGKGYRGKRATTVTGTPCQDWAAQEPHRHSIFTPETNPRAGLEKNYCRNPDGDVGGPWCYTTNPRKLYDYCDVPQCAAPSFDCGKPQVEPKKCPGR
T5 sequence (P00750 36-562): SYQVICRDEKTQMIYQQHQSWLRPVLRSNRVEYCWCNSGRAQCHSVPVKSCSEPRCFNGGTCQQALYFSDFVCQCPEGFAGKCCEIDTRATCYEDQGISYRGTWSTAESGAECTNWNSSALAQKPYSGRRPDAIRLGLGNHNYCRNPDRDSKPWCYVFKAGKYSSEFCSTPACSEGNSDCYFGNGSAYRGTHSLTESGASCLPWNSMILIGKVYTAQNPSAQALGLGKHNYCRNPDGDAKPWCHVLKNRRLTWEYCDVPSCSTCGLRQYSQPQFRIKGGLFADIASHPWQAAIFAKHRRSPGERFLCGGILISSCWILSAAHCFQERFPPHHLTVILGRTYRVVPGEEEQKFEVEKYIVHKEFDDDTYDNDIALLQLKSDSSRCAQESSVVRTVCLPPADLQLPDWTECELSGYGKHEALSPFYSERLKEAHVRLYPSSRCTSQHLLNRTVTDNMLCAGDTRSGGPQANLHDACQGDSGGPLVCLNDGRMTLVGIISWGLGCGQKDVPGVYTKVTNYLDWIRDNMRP
T2 sequence (P00742 235-488 limits assumed): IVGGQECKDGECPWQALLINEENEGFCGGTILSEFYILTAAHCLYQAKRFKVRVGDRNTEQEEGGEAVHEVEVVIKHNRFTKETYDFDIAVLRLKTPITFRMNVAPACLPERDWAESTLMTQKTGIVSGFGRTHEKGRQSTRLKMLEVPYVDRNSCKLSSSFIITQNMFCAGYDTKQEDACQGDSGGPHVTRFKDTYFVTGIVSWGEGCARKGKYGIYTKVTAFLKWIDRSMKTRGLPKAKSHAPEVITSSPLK
T2 sequence (P00742 41-179 partner limits assumed): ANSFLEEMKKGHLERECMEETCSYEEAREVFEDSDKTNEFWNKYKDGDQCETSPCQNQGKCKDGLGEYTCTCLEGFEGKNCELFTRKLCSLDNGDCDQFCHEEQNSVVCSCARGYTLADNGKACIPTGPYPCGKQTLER

Enzyme Kass, Human Thrombin (human thrombin) [L/mol × 10^6]	Enzyme Kass, Xa (factor Xa) [L/mol × 10^6]	Enzyme Kass, Trypsin (Bovine trypsin) [L/mol × 10^6]	Enzyme Kass, Plasmin (Human plasmin) [L/mol × 10^6]	Enzyme Kass, t-Pa [1] [L/mol × 10^6]	Index of Bioavailability, % Relative Activity [5] [%]	SMILES	2 × Clotting time, TT (Human Plasma [2]) [ng/mL]	2 × Clotting time, APTT (Human Plasma [3])	2 × Clotting time, PT (Human Plasma [4])	Index of Bioavailability, % Relative Activity [6] [%]
550	20	200	45	0.73	19	CCS(=O)(=O)N[C@H](CC1CCCCC1)C(=O)N1CCC[C@H]1C(=O)N[C@H](C=O)CCCNC(=N)N.Cl [Example 21, EtSO2 -D-Cha-Pro-Arg-H.HCl]	25	260 ng/mL	730 ng/mL	–
26	1.1	12	0.61	0.035	9	CC(=O)N[C@H](CC1CCCCC1)C(=O)N1CCC[C@H]1C(=O)N[C@H](C=O)CCCNC(=N)N.Cl [Example 28, Ac-D-Cha-Pro-Arg-H.HCl] (Ac-[dCha]-Pro-Arg-aldehyde)	92	1,900 ng/ML	3,500 ng/ML	–
590	5.6	160	7.7	0.037	13	CN[C@H](CC1CCCCC1)C(=O)N1CCC[C@H]1C(=O)N[C@H](C=O)CCCNC(=N)N.Cl [Example 31, Me-D-Cha-Pro-Arg-H.HCl] (H-[dNMeCha]-Pro-Arg-aldehyde)	18	420 ng/mL	720 ng/mL	–

SMILES	Enzyme Kass, Human Thrombin (human thrombin) [L/mol × 10^6]	Enzyme Kass, Xa (factor Xa) [L/mol × 10^6]	Enzyme Kass, Trypsin (Bovine trypsin) [L/mol × 10^6]	Enzyme Kass, Plasmin (Human plasmin) [L/mol × 10^6]	Enzyme Kass, t-Pa [1] [L/mol × 10^6]	Index of Bioavailability, % Relative Activity [5] [%]	2 × Clotting time, TT (Human Plasma [2]) [ng/mL]	2 × Clotting time, APTT (Human Plasma [3])	2 × Clotting time, PT (Human Plasma [4])	Index of Bioavailability, % Relative Activity [6] [%]
Cl.N=C(N)NCCC[C@@H](C=O)NC(=O)[C@@H]1CCCN1C(=O)[C@@H](Cc1ccccc1)NCC1CCCCC1 [Example 30, cyclohexyl-CH2 -D-phe-pro-Arg-H.HCl]	480	0.11	69	0.49	0.046	–	16	860 ng/mL	1,200 ng/ML	1
CCOC(=O)N[C@H](Cc1ccccc1)C(=O)N1CCC[C@H]1C(=O)N[C@H](C=O)CCCNC(=N)N.Cl [Example 33, EtOCO-D-Phe-Pro-Arg-H.HCl]	170	2.3	240	16	2.5	–	22	390 ng/mL	2,000 ng/ML	14
